Laboratory results taken from US20180214393A1, “METHODS FOR TREATING CANCER” (RADIUS PHARMACEUTICALS, INC., priority 2015, published 2018).
Entries after “also recorded” stand apart in the source; their conditions may differ. Structures can show the parent of a compound that is named as a salt. Where two headings read alike, the source gives them in different places.

Assays:
[1] = Phase 1 dose escalation study in healthy postmenopausal women, treatment related AEs, oral daily for 7 days; type: in vivo
Method: The subjects were 40-75 years old with BMI of 18.0-30 kg/m^2. Subjects having evidence of clinically relevant pathology, increased risk of stroke or of history venous thromboembolic events, or use of concomitant medication less than 14 days prior to admission to clinical research center (paracetamol allowed up to 3 days prior) were excluded.
The subjects were treated with placebo or at least one oral dose daily after a light breakfast for 7 days at dose levels of 200 mg, 500 mg, 750 mg and 1000 mg, respectively.

MCF-7 cell lines = assay: ER degradation and ER signaling (PGR, GREB1, TFF1) in MCF-7 cell lines
[2] = RAD1901 levels in plasma, tumor and brain of mice implanted with MCF7 cells (LC-MS/MS); type: in vivo; details: for Kp at 40 days / concentration at 40 days: mouse, oral
From the text: A similar tumor to plasma ratio was also observed at lower dose levels where tumor concentrations were approximately 20-30 fold higher than in plasma.

With `CCNCCc1ccc(CN(CC)c2cc(OC)ccc2[C@@H]2CCc3cc(O)ccc3C2)cc1` [RAD1901, (6R)-6-(2-(N-(4-(2-(ethylamino)ethyl)benzyl)-N-ethylamino)-4-methoxyphenyl)-5,6,7,8-tetrahydronaphthalen-2-ol dihydrochloride] the “Oesophageal pain AE, %” value ([1]; 1000 mg Gr3) was “(14) %”, the dose limiting toxicities ([1]; 200-1000 mg, 7 days, dihydrochloride) was “No dose limiting toxicities were observed; also recorded: No dose limiting toxicites (DLT) were observed” and the “Abdominal discomfort AE, %” value ([1]; Total Active Gr1) was “(9) %”. The “Abdominal distension AE, %” value ([1]; Total Active Gr1) was “(11) %”, the “Abdominal pain AE, %” value ([1]; Total Active Gr1) was “(16) %” and the “Diarrhoea AE, %” value ([1]; Total Active Gr1) was “(14) %”. For the same molecule, the “Dizziness AE, %” value ([1]; Total Active Gr1) was “(11) %”, the “Dyspepsia AE, %” value ([1]; Total Active Gr1) was “(30) %” and the “Dysphagia AE, %” value ([1]; Total Active Gr1) was “(9) %”. For the same molecule, the “Flatulance AE, %” value ([1]; Total Active Gr1) was “(11) %”, the “Headache AE, %” value ([1]; Total Active Gr1) was “(20) %” and the “Hiccups AE, %” value ([1]; Total Active Gr1) was “(20) %”. For the same molecule, the “Hot flush AE, %” value ([1]; Total Active Gr1) was “(25) %”, the “Myalgia AE, %” value ([1]; Total Active Gr1) was “(7) %” and the “Nausea AE, %” value ([1]; Total Active Gr1) was “(32) %”. The “Odynophagia AE, %” value ([1]; Total Active Gr1) was “(9) %”, the “Oesophageal pain AE, %” value ([1]; Total Active Gr1) was “(7) %” and the “Salivary hyper-secretion AE, %” value ([1]; Total Active Gr1) was “(18) %”. The “Sensation of a foreign body AE, %” value ([1]; Total Active Gr1) was “(16) %”, the “Vomiting AE, %” value ([1]; Total Active Gr1) was “(7) %” and the “Abdominal discomfort AE, %” value ([1]; Total Active Gr2) was “(2) %”. The “Abdominal distension AE, %” value ([1]; Total Active Gr2) was “(2) %”, the “Abdominal pain AE, %” value ([1]; Total Active Gr2) was “(7) %” and the “Diarrhoea AE, %” value ([1]; Total Active Gr2) was “(2) %”. For the same molecule, the “Dyspepsia AE, %” value ([1]; Total Active Gr2) was “(7) %”, the “Dysphagia AE, %” value ([1]; Total Active Gr2) was “(7) %” and the “Headache AE, %” value ([1]; Total Active Gr2) was “(2) %”. The “Myalgia AE, %” value ([1]; Total Active Gr2) was “(5) %”, the “Nausea AE, %” value ([1]; Total Active Gr2) was “(11) %” and the “Odynophagia AE, %” value ([1]; Total Active Gr2) was “(5) %”. For the same molecule, the “Oesophageal pain AE, %” value ([1]; Total Active Gr2) was “(14) %”, the “Vomiting AE, %” value ([1]; Total Active Gr2) was “(23) %” and the “Oesophageal pain AE, %” value ([1]; Total Active Gr3) was “(2) %”. The “Vomiting AE, %” value ([1]; Total Active Gr3) was “(2) %”, the “Abdominal discomfort AE, %” value ([1]; Total TEAE All) was “(11) %” and the “Abdominal distension AE, %” value ([1]; Total TEAE All) was “(14) %”. The “Abdominal pain AE, %” value ([1]; Total TEAE All) was “(23) %”, the “Diarrhoea AE, %” value ([1]; Total TEAE All) was “(16) %” and the “Dizziness AE, %” value ([1]; Total TEAE All) was “(11) %”. For the same molecule, the “Dyspepsia AE, %” value ([1]; Total TEAE All) was “(36) %”, the “Dysphagia AE, %” value ([1]; Total TEAE All) was “(16) %” and the “Flatulance AE, %” value ([1]; Total TEAE All) was “(11) %”. For the same molecule, the “Headache AE, %” value ([1]; Total TEAE All) was “(23) %”, the “Hiccups AE, %” value ([1]; Total TEAE All) was “(20) %” and the “Hot flush AE, %” value ([1]; Total TEAE All) was “(25) %”. For the same molecule, the “Myalgia AE, %” value ([1]; Total TEAE All) was “(11) %”, the “Nausea AE, %” value ([1]; Total TEAE All) was “(43) %” and the “Odynophagia AE, %” value ([1]; Total TEAE All) was “(14) %”. The “Oesophageal pain AE, %” value ([1]; Total TEAE All) was “(23) %”, the “Salivary hyper-secretion AE, %” value ([1]; Total TEAE All) was “(18) %” and the “Sensation of a foreign body AE, %” value ([1]; Total TEAE All) was “(16) %”. The “Vomiting AE, %” value ([1]; Total TEAE All) was “(32) %”, the ER degradation (MCF-7 cell lines; 0.001-1 μM) was “nearly complete ER degradation” and the “ER signaling (PgR, GREB1, TFF1)” value (MCF-7 cell lines; same concentrations) was “inhibited ER signaling”. For the same molecule, the Brain ([2]; 0.3 mg/kg, 40 days) was “BLQ”, the Brain ([2]; 1 mg/kg, 40 days) was “BLQ” and the Kp at 40 days ([2]; Balb/C-Nude, tumor, lower dose levels, read-out: tumor concentrations higher than in plasma) was 20 to 30. For the same molecule, the blood-brain barrier penetration ([2]; mice treated for 40 days) was “able to cross the blood-brain barrier”, the Kp at 40 days ([2]; brain, 3 mg/kg, 40 days, read-out: B/P Ratio) was 0.78 and the Kp at 40 days ([2]; brain, 10 mg/kg, 40 days, read-out: B/P Ratio) was 0.36. For the same molecule, the Kp at 40 days ([2]; brain, 30 mg/kg, 40 days, read-out: B/P Ratio) was 0.53, the Kp at 40 days ([2]; brain, 60 mg/kg, 40 days, read-out: B/P Ratio) was 0.6 and the concentration at 40 days ([2]; brain, 3 mg/kg, 40 days, read-out: Brain) was 7 ng/mL. For the same molecule, the concentration at 40 days ([2]; brain, 10 mg/kg, 40 days, read-out: Brain) was 14 ng/mL, the concentration at 40 days ([2]; brain, 30 mg/kg, 40 days, read-out: Brain) was 72 ng/mL and the concentration at 40 days ([2]; brain, 60 mg/kg, 40 days, read-out: Brain) was 201 ng/mL. For the same molecule, the concentration at 40 days ([2]; plasma, 0.3 mg/kg, 40 days, read-out: Plasma) was 2 ng/mL, the concentration at 40 days ([2]; plasma, 1 mg/kg, 40 days, read-out: Plasma) was 3 ng/mL and the concentration at 40 days ([2]; plasma, 3 mg/kg, 40 days, read-out: Plasma) was 9 ng/mL. For the same molecule, the concentration at 40 days ([2]; plasma, 10 mg/kg, 40 days, read-out: Plasma) was 39 ng/mL, the concentration at 40 days ([2]; plasma, 30 mg/kg, 40 days, read-out: Plasma) was 137 ng/mL and the concentration at 40 days ([2]; plasma, 60 mg/kg, 40 days, read-out: Plasma) was 334 ng/mL. For the same molecule, the Kp at 40 days ([2]; tumor, 3 mg/kg, 40 days, read-out: T/P Ratio) was 18.8, the Kp at 40 days ([2]; tumor, 10 mg/kg, 40 days, read-out: T/P Ratio) was 19.4 and the Kp at 40 days ([2]; tumor, 30 mg/kg, 40 days, read-out: T/P Ratio) was 28.3. For the same molecule, the Kp at 40 days ([2]; tumor, 60 mg/kg, 40 days, read-out: T/P Ratio) was 33.3, the Kp at 40 days ([2]; tumor, 60 mg/kg, T/P ratio (RAD1901 level in tumor v. plasma), maximum) was ≤ 35 and the concentration at 40 days ([2]; tumor, 0.3 mg/kg, 40 days, read-out: Tumor) was 11 ng/mL. The concentration at 40 days ([2]; tumor, 1 mg/kg, 40 days, read-out: Tumor) was 45 ng/mL, the concentration at 40 days ([2]; tumor, 3 mg/kg, 40 days, read-out: Tumor) was 169 ng/mL and the concentration at 40 days ([2]; tumor, 10 mg/kg, 40 days, read-out: Tumor) was 757 ng/mL. It also gave a concentration at 40 days ([2]; tumor, 30 mg/kg, 40 days, read-out: Tumor) of 3880 ng/mL and a concentration at 40 days ([2]; tumor, 60 mg/kg, 40 days, read-out: Tumor) of 11100 ng/mL.
